The test deals with T1, USP25 (USP25-His6, Boston Biochem E-546) (Homo sapiens, UniProt Q9UHP3).
T1 construct: His6; purchased Boston Biochem E-546
T1 sequence (Q9UHP3 1-1055): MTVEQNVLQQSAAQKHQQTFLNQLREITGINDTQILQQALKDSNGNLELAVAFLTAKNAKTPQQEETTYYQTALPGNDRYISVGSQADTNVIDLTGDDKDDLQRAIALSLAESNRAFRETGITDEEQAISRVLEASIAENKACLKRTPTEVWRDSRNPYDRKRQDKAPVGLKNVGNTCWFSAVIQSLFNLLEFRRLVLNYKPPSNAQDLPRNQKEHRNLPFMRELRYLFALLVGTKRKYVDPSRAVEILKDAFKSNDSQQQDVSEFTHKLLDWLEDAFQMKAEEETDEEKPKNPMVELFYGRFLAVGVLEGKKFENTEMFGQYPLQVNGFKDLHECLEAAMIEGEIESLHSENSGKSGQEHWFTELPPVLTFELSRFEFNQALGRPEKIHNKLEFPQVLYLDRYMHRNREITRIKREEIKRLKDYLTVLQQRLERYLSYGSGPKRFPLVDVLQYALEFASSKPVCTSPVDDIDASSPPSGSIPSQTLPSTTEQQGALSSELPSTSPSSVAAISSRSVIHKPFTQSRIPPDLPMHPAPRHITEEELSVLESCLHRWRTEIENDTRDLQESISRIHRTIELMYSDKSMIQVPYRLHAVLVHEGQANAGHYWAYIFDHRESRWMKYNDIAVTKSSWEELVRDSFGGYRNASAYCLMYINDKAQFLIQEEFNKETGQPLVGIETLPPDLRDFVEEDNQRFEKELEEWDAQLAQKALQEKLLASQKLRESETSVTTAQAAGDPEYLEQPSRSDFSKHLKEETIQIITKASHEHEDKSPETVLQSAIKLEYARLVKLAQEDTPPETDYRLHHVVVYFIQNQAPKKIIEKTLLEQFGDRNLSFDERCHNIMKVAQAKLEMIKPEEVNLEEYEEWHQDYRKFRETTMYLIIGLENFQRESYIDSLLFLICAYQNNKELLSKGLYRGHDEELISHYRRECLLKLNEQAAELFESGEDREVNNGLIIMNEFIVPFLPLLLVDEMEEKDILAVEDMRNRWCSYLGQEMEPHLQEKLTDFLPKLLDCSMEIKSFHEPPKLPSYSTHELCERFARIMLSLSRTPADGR
The experiment in a line: Ubiquitin-Rhodamine 110 Assay for USP25 Activity, Example A-2. In kind it is biochemical. The note with it: Ubiquitin-Rhodamine 110 assay, Example A-2; read-out: USP25 A-2 IC50 range. Put shortly: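 Fluorescence (ex 485, em 535 nm) of cleaved ubiquitin-rhodamine 110 (25 nM, below Km) gave IC50 via 4-parameter logistic fit. Reaction: 45 min, room temperature, citric acid stop, after 30 min compound preincubation with 75 pM USP25-His6 in 20 mM Tris pH 8.0, 3 mM BME, 0.03% BGG, 0.01% Triton X-100; top dose 25 μM.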
In the case of `Cc1ccc2c(N)c(C(=O)N[C@H]3COc4cc(N5C[C@H](N)CC[C@@H]5C(F)(F)F)ccc4C3)sc2n1` [Example 244, 3-amino-N-[(3R)-7-[(2R,5R)-5-amino-2-(trifluoromethyl)piperidin-1-yl]-3,4-dihydro-2H-1-benzopyran-3-yl]-6-methylthieno[2,3-b]pyridine-2-carboxamide], the IC50 was 1 to 50 nM.

For `Cc1cc(C)c2c(N)c(C(=O)N[C@H]3COc4cc(N5CC[C@H]6CNC[C@H]65)cc(F)c4C3)sc2n1` (single isomer, unassigned) [Example 222], the IC50 fell in the range of 50 to 200 nM.

On to `Cc1ccc2c(N)c(C(=O)N[C@H]3COc4cc(N5C[C@@H]6NCCC(F)(F)[C@@H]6C5)ccc4C3)sc2n1` [Example 237, N-[(3R)-7-[(4aR,7aR)-4,4-difluoro-octahydro-1H-pyrrolo[3,4-b]pyridin-6-yl]-3,4-dihydro-2H-1-benzopyran-3-yl]-3-amino-6-methylthieno[2,3-b]pyridine-2-carboxamide], for which the 50% inhibitory concentration (IC50) fell in the range of 200 to 2000 nM.

As to `CN[C@H]1CN(c2ccc3c(c2)OC[C@H](NC(=O)c2sc4nc(C)ccc4c2N)C3)C[C@@H]1OC` [Example 212, 3-amino-N-[(3R)-7-[(3S,4S)-3-methoxy-4-(methylamino)pyrrolidin-1-yl]-3,4-dihydro-2H-1-benzopyran-3-yl]-6-methylthieno[2,3-b]pyridine-2-carboxamide], the half-inhibitory concentration (IC50) was in the range of 200 to 2000 nM.

With `Cc1ccc2c(N)c(C(=O)N[C@H]3Cc4ccc(N5CCNCC5)nc4[C@H](C)C3)sc2n1` [Example 208, 3-amino-6-methyl-N-[(6R,8R)-8-methyl-2-(piperazin-1-yl)-5,6,7,8-tetrahydroquinolin-6-yl]thieno[2,3-b]pyridine-2-carboxamide], the IC50 lay within 200 to 2000 nM.

Turning to `N#Cc1c(N2CC3CCC(C2)N3)cc(F)c2c1CC[C@@H](NC(=O)c1cnc3c(c1)[C@@H]1C[C@@H]1CN3)C2` [Example 197, (6aS,7aR)-N-[(2R)-5-cyano-6-{3,8-diazabicyclo[3.2.1]octan-3-yl}-8-fluoro-1,2,3,4-tetrahydronaphthalen-2-yl]-5H,6H,6aH,7H,7aH-cyclopropa[c]1,8-naphthyridine-2-carboxamide], the IC50 is over 2000 nM.

Take `CO[C@H]1CN(c2ccc3c(c2)CC[C@H](NC(=O)c2cnc4c(c2)[C@H]2C[C@H]2CN4)C3)C[C@@H]1N` [Example 190, (6aR,7aS)-N-[(2S)-6-[(3S,4S)-3-amino-4-methoxypyrrolidin-1-yl]-1,2,3,4-tetrahydronaphthalen-2-yl]-5H,6H,6aH,7H,7aH-cyclopropa[c]1,8-naphthyridine-2-carboxamide]: the concentration for half-maximal inhibition (IC50) was over 2000 nM.

For `Cc1ccc2c(N)c(C(=O)N[C@H]3COc4cc(N5C[C@@H](N)CC[C@@H]5C(F)(F)F)ccc4C3)sc2n1` [Example 246, 3-amino-N-[(3R)-7-[(2R,5S)-5-amino-2-(trifluoromethyl)piperidin-1-yl]-3,4-dihydro-2H-1-benzopyran-3-yl]-6-methylthieno[2,3-b]pyridine-2-carboxamide], the IC50 is 1 to 50 nM.

On to `Cc1ccc2c(N)c(C(=O)N[C@H]3COc4cc(N5C6CNCC5COC6)ccc4C3)sc2n1` [Example 209, 3-amino-6-methyl-N-[(3R)-7-{3-oxa-7,9-diazabicyclo[3.3.1]nonan-9-yl}-3,4-dihydro-2H-1-benzopyran-3-yl]thieno[2,3-b]pyridine-2-carboxamide], for which the half-inhibitory concentration (IC50) was in the range of 1 to 50 nM.

Regarding `COC[C@H]1CN(c2cc(F)c3c(c2)OC[C@H](NC(=O)c2sc4nc(C)ccc4c2N)C3)C[C@H]1N` [Example 251, 3-amino-N-[(3R)-7-[(3S,4S)-3-amino-4-(methoxymethyl)pyrrolidin-1-yl]-5-fluoro-3,4-dihydro-2H-1-benzopyran-3-yl]-6-methylthieno[2,3-b]pyridine-2-carboxamide], the 50% inhibitory concentration (IC50) was 50 to 200 nM.

Values taken from patent US11524966B1 (Valo Early Discovery, Inc., priority 2017, dated 2022).
